Measured values: article PMC8074287, “Analgesic and Anticancer Activity of Benzoxazole Clubbed 2-Pyrrolidinones as Novel Inhibitors of Monoacylglycerol Lipase” (Molecules, 2021)

Tests used:
hFAAH = target: T1, hFAAH (Homo sapiens, UniProt O00519); experiment: Human FAAH inhibition assay (Cayman's assay kit); settings: IC50, mean ± SEM (n = 3)
T1 sequence (O00519 1-579): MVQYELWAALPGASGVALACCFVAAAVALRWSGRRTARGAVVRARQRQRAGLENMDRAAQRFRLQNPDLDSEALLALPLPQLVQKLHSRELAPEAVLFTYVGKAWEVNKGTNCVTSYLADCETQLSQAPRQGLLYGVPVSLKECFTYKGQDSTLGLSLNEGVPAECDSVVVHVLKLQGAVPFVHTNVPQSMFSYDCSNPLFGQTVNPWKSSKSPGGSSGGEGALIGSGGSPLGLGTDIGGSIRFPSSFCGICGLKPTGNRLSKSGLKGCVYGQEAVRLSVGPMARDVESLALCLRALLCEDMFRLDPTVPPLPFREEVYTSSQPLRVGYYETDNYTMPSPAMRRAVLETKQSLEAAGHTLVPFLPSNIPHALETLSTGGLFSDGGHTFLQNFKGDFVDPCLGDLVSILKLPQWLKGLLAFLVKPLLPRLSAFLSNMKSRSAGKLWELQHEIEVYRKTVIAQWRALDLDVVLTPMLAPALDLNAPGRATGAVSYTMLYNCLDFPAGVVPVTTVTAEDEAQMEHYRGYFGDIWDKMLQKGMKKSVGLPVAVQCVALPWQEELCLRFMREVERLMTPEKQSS

RPMI-8226 = experiment: NCI60 single-dose SRB assay; format: cell-based, human; settings: RPMI-8226, Leukemia, 10 μM
Procedure: (§1) Compounds 19 and 20 were supplied to National Cancer Institute (USA), for sulforhodamine B (SRB) assay and anticancer screening. Single-dose (10 µM) assay results for compounds 19 and 20 were provided as a mean of percent growth (% G) and growth inhibition (% GI) against 60 cell lines of nine types of cancers and are tabulated in Table 4. […] Both the compounds 19 and 20 were also found active on UO-31 renal cancer cell line with % GI of 21.18 and 29.95, respectively.
(§2) Compounds 19 and 20 were supplied to National Cancer Institute (Bethesda, Maryland, USA), for in vitro sulforhodamine B (SRB) assay, anticancer screening on 60 cell lines of cancers of leukemia, melanoma, and tumors of the kidney, brain, breast, lung, colon, ovary, and prostate, as per their standard protocol. One dose anticancer results (NCI, USA) of compounds 19 and 20 are provided in the Supplementary Materials.

NCI/ADR-RES = experiment: NCI60 single-dose SRB assay; format: cell-based, human; settings: Ovarian Cancer, 10 μM
Procedure: as §1, §2

T-47D = experiment: NCI60 single-dose SRB assay; format: cell-based, human; settings: Breast Cancer, 10 μM
Procedure: as §1, §2

SF-295 = experiment: NCI60 single-dose SRB assay; format: cell-based, human; settings: SF-295, CNS Cancer, 10 μM
Procedure: as §1, §2

SNB-75 = experiment: NCI60 single-dose SRB assay; format: cell-based, human; settings: SNB-75, CNS Cancer, 10 μM
Procedure: as §1, §2

M14 = experiment: NCI60 single-dose SRB assay; format: cell-based, human; settings: M14, Melanoma, 10 μM
Procedure: as §1, §2

HS 578T = experiment: NCI60 single-dose SRB assay; format: cell-based, human; settings: Breast Cancer, 10 μM
Procedure: as §1, §2

MALME-3M = experiment: NCI60 single-dose SRB assay; format: cell-based, human; settings: Melanoma, 10 μM
Procedure: as §1, §2

MCF7 = experiment: NCI60 single-dose SRB assay; format: cell-based, human; settings: MCF7, Breast Cancer, 10 μM
Procedure: as §1, §2

NCI-H322M = experiment: NCI60 single-dose SRB assay; format: cell-based, human; settings: Non-Small Cell Lung Cancer, 10 μM
Procedure: as §1, §2

SR = experiment: NCI60 single-dose SRB assay; format: cell-based, human; settings: Leukemia, 10 μM
Procedure: as §1, §2

OVCAR-4 = experiment: NCI60 single-dose SRB assay; format: cell-based, human; settings: OVCAR-4, Ovarian Cancer, 10 μM
Procedure: as §1, §2

COLO 205 = experiment: NCI60 single-dose SRB assay; format: cell-based, human; settings: COLO 205, Colon Cancer, 10 μM
Procedure: as §1, §2

MDA-MB-435 = experiment: NCI60 single-dose SRB assay; format: cell-based, human; settings: MDA-MB-435, Melanoma, 10 μM
Procedure: as §1, §2

MDA-MB-468 = experiment: NCI60 single-dose SRB assay; format: cell-based, human; settings: MDA-MB-468, Breast Cancer, 10 μM
Procedure: as §1, §2

UACC-257 = experiment: NCI60 single-dose SRB assay; format: cell-based, human; settings: UACC-257, Melanoma, 10 μM
Procedure: as §1, §2

786-0 = experiment: NCI60 single-dose SRB assay; format: cell-based, human; settings: 786-0, Renal Cancer, 10 μM
Procedure: as §1, §2

U251 = experiment: NCI60 single-dose SRB assay; format: cell-based, human; settings: U251, CNS Cancer, 10 μM
Procedure: as §1, §2

SF-539 = experiment: NCI60 single-dose SRB assay; format: cell-based, human; settings: SF-539, CNS Cancer, 10 μM
Procedure: as §1, §2

PC-3 = experiment: NCI60 single-dose SRB assay; format: cell-based, human; settings: PC-3, Prostate Cancer, 10 μM
Procedure: as §1, §2

OVCAR-3 = experiment: NCI60 single-dose SRB assay; format: cell-based, human; settings: OVCAR-3, Ovarian Cancer, 10 μM
Procedure: as §1, §2

MDA-MB-231/ATCC = experiment: NCI60 single-dose SRB assay; format: cell-based, human; settings: Breast Cancer, 10 μM
Procedure: as §1, §2

A549/ATCC = experiment: NCI60 single-dose SRB assay; format: cell-based, human; settings: Non-Small Cell Lung Cancer, 10 μM
Procedure: as §1, §2

SK-OV-3 = experiment: NCI60 single-dose SRB assay; format: cell-based, human; settings: SK-OV-3, Ovarian Cancer, 10 μM
Procedure: as §1, §2

## NS(=O)(=O)c1ccc(N2CC(c3nc4ccccc4o3)CC2=O)cc1 (stereo not shown) [Compound 20, 4-(4-(Benzo[d]oxazol-2-yl)-2-oxopyrrolidin-1-yl)benzenesulfonamide]
hFAAH
  IC50: 68 ± 2.1 µM
RPMI-8226
  % G: 103.53%
  % GI: −3.53%
NCI/ADR-RES
  % G: 101.45%
  % GI: −1.45%
T-47D
  % G: 83.24%
SF-295
  % G: 93.71%
  % GI: 6.29%
SNB-75
  % G: 68.12%
  % GI: 31.88%
M14
  % G: 98.58%
  % GI: 1.42%
HS 578T
  % G: 104.19%
  % GI: −4.19%
MALME-3M
  % G: 93.29%
  % GI: 6.71%
MCF7
  % G: 92.32%
  % GI: 7.68%
NCI-H322M
  % G: 99.10%
  % GI: 0.90%
SR
  % G: 93.20%
  % GI: 6.80%
OVCAR-4
  % G: 99.47%
  % GI: 0.53%
COLO 205
  % G: 104.05%
  % GI: −4.05%
MDA-MB-435
  % G: 100.55%
  % GI: −0.55%
MDA-MB-468
  % G: 100.34%
  % GI: −0.34%
UACC-257
  % G: 110.78%
  % GI: −10.78%
786-0
  % G: 98.99%
  % GI: 1.01%
U251
  % G: 95.21%
  % GI: 4.79%
SF-539
  % G: 87.58%
  % GI: 12.42%
PC-3
  % G: 88.11%
  % GI: 11.89%
OVCAR-3
  % G: 98.53%
  % GI: 1.47%
MDA-MB-231/ATCC
  % G: 80.11%
  % GI: 19.89%
A549/ATCC
  % G: 95.28%
  % GI: 4.72%
SK-OV-3
  % G: 94.77%
  % GI: 5.23%

## O=C1CC(c2nc3ccccc3o2)CN1c1ccc([N+](=O)[O-])cc1 (stereo not shown) [Compound 19, 4-(Benzo[d]oxazol-2-yl)-1-(4-nitrophenyl)pyrrolidin-2-one]
hFAAH
  IC50: 55 ± 2.7 µM
RPMI-8226
  % G: 101.28%
  % GI: −1.28%
NCI/ADR-RES
  % G: 98.37%
  % GI: 1.63%
T-47D
  % G: 80.01%
  % GI: 19.99%
SF-295
  % G: 98.21%
  % GI: 1.79%
SNB-75
  % G: 64.51%
  % GI: 35.49%
M14
  % G: 101.37%
  % GI: −1.37%
HS 578T
  % G: 101.81%
  % GI: −1.81%
MALME-3M
  % G: 88.53%
  % GI: 11.47%
MCF7
  % G: 99.19%
  % GI: 0.81%
NCI-H322M
  % G: 94.18%
  % GI: 5.82%
SR
  % G: 88.92%
  % GI: 11.08%
OVCAR-4
  % G: 106.27%
  % GI: −6.27%
COLO 205
  % G: 103.79%
  % GI: −3.79%
MDA-MB-435
  % G: 95.05%
  % GI: 4.95%
MDA-MB-468
  % G: 98.03%
  % GI: 1.97%
UACC-257
  % G: 106.92%
  % GI: −6.92%
786-0
  % G: 104.06%
  % GI: −4.06%
U251
  % G: 100.97%
  % GI: −0.97%
SF-539
  % G: 95.59%
  % GI: 4.41%
PC-3
  % G: 91.14%
  % GI: 8.86%
OVCAR-3
  % G: 98.56%
  % GI: 1.44%
MDA-MB-231/ATCC
  % G: 88.41%
  % GI: 11.59%
A549/ATCC
  % G: 100.60%
  % GI: −0.60%
SK-OV-3
  % G: 88.34%
  % GI: 11.66%
